This note sets out measurements from publication PMC8741257, “Identification of novel non-toxic and anti-angiogenic α-fluorinated chalcones as potent colchicine binding site inhibitors” (Journal of Enzyme Inhibition and Medicinal Chemistry, 2022).

The subject of test [1] is A549 (human non-small cell lung cancer). Put plainly: Antiproliferative activity (SRB assay). The test is classed as cell-based. Particulars: mean ± SD, three separated experiments, 72 h. How it is done: (§1) MCF-7, MGC-803, Hela and HepG-2 cell lines were cultured in a base medium (90% DMEM and 10% FBS), A549 and U937 were cultured in a base medium (90% PRMI-1640 and 10% FBS) at 37 °C, 5% CO2 and a saturated humidity atmosphere. All the mediums were supplemented with 10% FBS and 1% […]/streptomycin (all cells were purchased from Shanghai Institutes for Biological Sciences, Chinese Academy of Sciences, Shanghai, China).
(§2) A549, MGC-803, MCF-7, HepG2 and Hela cells were seeded at the appropriate cell line density (3 × 10^3 to 4 × 10^3 cells/well). The cells were then incubated at 37 °C for 24 h in a humidified 5%CO2 in 96-well plates prior to experiments. After a further 72 h of incubation, cell proliferation was quantified with SRB ([…]) to determine the number of surviving cells. The absorbance at 560 nm was measured by microplate. The experiment was repeated three times, and the data were listed in the form of mean and standard deviation.
For orientation: In SRB staining, fixed cells bind dye roughly in proportion to their protein.

Test [2] relates to Hela (human cervical cancer cells). Put plainly: Antiproliferative activity (SRB assay). The test is classed as cell-based. As to conditions: mean ± SD, three separated experiments, 72 h. How it is done: as §1, §2
The test system of test [3] is HepG2 (human liver cancer cells). Put plainly: Antiproliferative activity (SRB assay). Particulars: mean ± SD, three separated experiments, 72 h. The format is cell-based. How it is done: as §1, §2
For test [4], the system named is MCF-7 (human breast cancer cells). Put plainly: Antiproliferative activity (SRB assay). The test is classed as cell-based. As to conditions: MCF7, mean ± SD, three separated experiments, 72 h. The method, then: as §1, §2
For test [5], the system named is MGC-803 (human gastric cancer cells). Put plainly: Antiproliferative activity (SRB / CCK-8 assay). Particulars: mean ± SD. The format is cell-based. How it is done:
as §1, §2
(§3) MGC-803 cells were collected and seeded into 96 well plates at a density of 8000/well. The mediums containing drugs and cell suspension were added into the well. The cells were incubated in 5% CO2 incubator at 37 °C for 72 h. Each well was added 10 µL CCK8 solution, and the incubation time was 3–4 h. The absorbance value at 450 nm was measured by microplate reader. Data are calculated with GraphPad Prism5 software.
(Tetrazolium dyes change colour on reduction, which living cells bring about.)

For test [6], the system named is 293 T (human embryonic kidney cell). Put plainly: Growth inhibition of normal human cells. The test is classed as cell-based. Particulars: HEK-293T, triplicate, mean ± SD. The method, then: (§4) The effect of compound 4c on three types of normal human cell lines including LO2 (human hepatocyte cells), 293 T (human embryonic kidney cell) and THP-1-derived macrophages was then determined.

In test [7] the test system is LO2 (human hepatocyte cells). Put plainly: Growth inhibition of normal human cells. Particulars: triplicate, mean ± SD. The format is cell-based. How it is done:
as §4

Test [8] concerns THP-1-derived macrophages. Put plainly: Growth inhibition of normal human cells. The test is classed as cell-based. Particulars: Macrophage, triplicate, mean ± SD. The method, then: as §4
The test system of test [9] is human normal cells (LO2, 293T, macrophage) versus MGC-803. Put plainly: Selectivity of growth inhibition, human normal cells versus MGC-803. The test is classed as cell-based. How it is done:
as §4

Test [10] relates to six human cancer cell lines (MCF-7, MGC-803, HepG2, Hela, A549, U937). Put plainly: Antiproliferative activity, summary over the tested cancer cell lines. The format is cell-based. As to conditions: read-out: IC50. How it is done: as §2, §3
Another test relates to tubulin. Put plainly: Tubulin polymerisation assay in vitro. The format is biochemical. As to conditions: 6 µM of 4c; colchicine 4 µM as positive control; fluorescence intensity. The method, then: The microtubule kinetic experiments were performed with 4 µM of colchicine as a positive control and 6 µM of 4c as the experimental group according to the method originally described by J. M. Andreu et al. with some modifications. Purified and unpolymerised tubulin was incubated with the tested compounds and the increased tendency of fluorescence intensity shown in control samples was obviously slowed down.

Test [11] has as its system MGC-803 cells. Put plainly: Cell apoptosis assay (Annexin V/PI, flow cytometry). The test is classed as cell-based, human. As to conditions: 48 h, control 1.99%. How it is done:
According to above-mentioned cell cycle analysis, we suppose that 4c might induce cells apoptosis, like other microtubule polymerisation inhibitors. Thus, the effects of 4c on MGC-803 cell apoptosis were examined by flow cytometry.
MGC-803 cells at 8 × 10^4 cells/well were seeded in 12-well cell culture plates overnight, and then the cultured cells were incubated with a dose range of compounds 4c for 48 h. The treated or untreated cells were washed twice with PBS and stained by Annexin V-PE and PI for 15 min without light exposure according to the manufacturer’s protocol. Apoptosis was quantified using a flow cytometer (Becton, Dickinson and Company, USA).
Background: A flow cytometer gives signals particle by particle.

For test [12], the system named is MGC-803 cells. Put plainly: Wound healing migration assay. The format is cell-based, human. Particulars: 72 nM, after 48 h, control approximately 64%. The method, then:
Metastasis is one of the leading causes of morbidity and mortality of cancer patients. Microtubules-targeting inhibitors have also been reported to interfere with cell migration and invasion. Accordingly, the in vitro would healing assay and Transwell assays were performed to investigate the inhibitory effect of compound 4c on the migration and invasion of MGC-803 cells. As shown Figure 8(A,C), the scratches healing rate in the control group was approximately 64%. By contrast, the cells treated with 4c have much smaller scratched areas recovery at all concentrations. […] Cell invasion is an important malignant behaviour during cancer metastasis. In Tanswell assay, MGC-803 cells were seeded into upper chambers with pre-coated Matrigel stimulating base membrane in order to assess the cellular invasion.
(§5) MGC-803 cells and HUVECs were seeded in 24-well plates and cultivated for 24 h at 37 °C. The cells were scribed vertically with a gun tip and washed with PBS to remove dead cells. The containing different concentrations of 4c were added to the scratched monolayers. The migrated cells were photographed under a light microscope at indicated time points from the scratch. Take a picture and use the image J software to calculate the area of the cell scratches.

For test [13], the system named is HUVECs (human umbilical vein endothelial cells). Put plainly: Wound healing migration assay. As to conditions: 10 µM, 48 h, control 65%. The test is classed as cell-based. The method, then: HUVECs (human umbilical vein endothelial cells) grown on Matrigel were commonly used as a tube formation model for studying the physiological and pathological processes of the vascular system in vitro, and a widely studied human endothelial cell type in angiogenesis. The effect of 4c on endothelial cell migration was assessed by using HUVECs. Standardised wounds were made in confluent monolayers of HUVECs and then exposed to compound 4c at 2.5, 5 and 10 µM for 48 h. […] We further evaluated the capacity of 4 s on endothelial cell invasion using a Transwell assay.
as §5

Like-named read-outs stand apart in the source and are kept apart here. A value given as a limit tells only on which side of the number the result lay.

As usually defined, the IC50 is the concentration at which inhibition is half-maximal. For the molecule `COc1cc(C(=O)/C(F)=C/c2c[nH]c3cc(Br)ccc23)cc(OC)c1OC` [4c, (Z)-3–(6-bromo-1H-indol-3-yl)-2-fluoro-1–(3,4,5-trimethoxyphenyl)prop-2-en-1-one], the IC50 is 202 ± 12 nM in [1]; 25 ± 1 nM in test [2]; above 5 µM in [3]; 254 ± 37 nM in test [4]; 57 ± 6 nM in test [5] (Table 2, triplicate); 57.1 ± 6 nM in [5] (three separated experiments, 72 h). In addition, the IC50 in test [6] was 1050 ± 220 nM; in test [7], 680 ± 220 nM; in test [8], 1210 ± 17 nM; in test [10] (against five of the tested cell lines, range), 25 to 202 nM; in test [10] (against six cell lines, range as worded in text), 25 to 254 nM. Moreover, the “selectivity ratio towards MGC-803 cells and macrophage cells” value in [9] is “up to 21.2 folds”. Also, in the test with tubulin, the “Effect on tubulin polymerisation in vitro” value is reported as “exhibited a similar action to that of colchicine”. Besides, the “percentage of apoptotic cells” value with MGC-803 cells [11] (18 nM (lowest dose)) was 19.12%; in the test on MGC-803 cells [11] (72 nM (highest dose)) it was 57.99%. Besides, in the test on MGC-803 cells [12], the “migration rates (scratch healing)” value was determined as 10%. The wound closure rates in test [13] worked out at 11%.
